# Data as given in patent US9085608B2, “Treatment of biofilms” (LYTIX BIOPHARMA AS, priority 2008, dated 2015).
# “Also recorded” adds a separate entry of the source. Like-named read-outs stand apart in the source and are kept apart here.
# Assays:
# [1] = system: 24 h old biofilm of 6 different staphylococcal strains; test: Biofilm metabolic activity, Alamar blue reduction; format: cell-based, S. epidermidis, S. haemolyticus, S. aureus; conditions: 50 mg/L, 24 h treatment; all biofilms except S. aureus PIA 9
# Description: Biofilm formation was induced in 96-well flat bottom microtitre plates (Nunclon Surface, NUNC, Roskilde, Denmark). First, overnight cultures were diluted 1:100 in MHIIB (S. epidermidis and S. haemolyticus) or tryptic soy broth (TSB) with 5% glucose and 5% NaCl (S. aureus). Two hundred of this bacterial suspension (10^7 cfu/ml) was added to each well and incubated for 24 h at 37° C. After 24 h the wells were carefully washed twice with phosphate-buffered saline (PBS) to remove planktonic bacteria. The washing procedure was evaluated by measuring metabolic activity of the PBS with the Alamar blue method, described in detail below.
# The washed biofilms were subjected to treatment with antibiotics or SAMPs at different concentrations. Stock solutions of the tetracycline (Sigma Aldrich), vancomycin (Alpharma) and linezolid (Pfizer) were diluted in MHIIB to 5 mg/L, 50 mg/L and 500 mg/L, and rifampicin (Sigma Aldrich) was diluted in MHIIB to 0.01 mg/L, 0.1 mg/L and 1 mg/L. Trifluoroacetate salts of the SAMPs were dissolved in sterile water and diluted to 5 mg/L, 50 mg/L and 500 mg/L in MHIIB. 200 μl of antibiotics or SAMPs, in different concentrations, were added to each well and incubated for 24 h at 37° C. Positive controls were untreated biofilms only added 200 μl MHIIB. Negative controls were only 200 μl MHIIB, with no bacteria added.
# We quantified the metabolic activity of biofilm with a slightly modified method previously described by Pettit et al. in Antimicrob. […] Briefly, the wells were washed twice with PBS. We then added 250 μl MHIIB with 5% Alamar blue (AB; Invitrogen, Carlsbad, Calif., USA) to each well. AB is a redox indicator which both fluoresces and changes colour in response to chemical reduction. The extent of reduction is a reflection of bacterial cell viability. After 1 h incubation at 37° C., absorbance was recorded at 570 and 600 nm using Versamax tuneable microplate reader (Molecular Devices, Sunnyvale, Calif., USA). […] The highest and lowest value of each run was excluded from the analyses, and the remaining 18 values were averaged.
# The percent reduction of AB was calculated according to the manufacturer's formula (Invitrogen, Carlsbad, USA). We calculated mean and standard deviations (SD) of all repeated measurements.
# We defined two levels of antimicrobial suppression of metabolic activity.
# [2] = system: Staphylococcus epidermidis TUH 08-16; test: microbe, parasite or virus in culture
# Description: (§1) Bacteria were grown overnight at 37° C. in cation adjusted Mueller-Hinton II Broth (MHIIB).
# (§2) We determined the MICs of oxacillin, gentamicin, tetracycline, vancomycin and linezolid using E-test (AB Biodisk, Solna, Sweden) and MICs of rifampicin using broth microdilution assay. Breakpoints were interpreted according to EUCAST criteria. […] All 3 SAMPs are tripeptides with two arginine residues providing their cationic moieties (FIG. 1). The lipophilic bulk is provided by a modified tryptophane derivate. […] The molecular weights of the SAMPs are in the range of 700-800 Dalton.
# [3] = system: Staphylococcus aureus PIA 9; test: microbe, parasite or virus in culture
# Description: as §1, §2
# [4] = system: Staphylococcus aureus PIA90; test: microbe, parasite or virus in culture
# Description: as §1, §2
# [5] = system: Staphylococcus epidermidis RP62A ATCC 35984; test: microbe, parasite or virus in culture
# Description: as §1, §2
# [6] = system: Staphylococcus haemolyticus TUH 51-03; test: microbe, parasite or virus in culture
# Description: as §1, §2
# [7] = system: Staphylococcus haemolyticus TUH 51-07; test: microbe, parasite or virus in culture
# Description: as §1, §2
# [8] = system: S. haemolyticus TUH 51-07 biofilm; test: Biofilm imaging, LIVE/DEAD staining and confocal laser scanning microscopy; format: cell-based, Staphylococcus haemolyticus; conditions: 24 h treatment
# Description: One ml aliquots of MHIIB-diluted overnight culture was used to grow S. haemolyticus TUH 51-07 biofilm on plastic coverslides (Thermanox, cellculture treated on one side, NUNC, Roskilde, Denmark) in 24-well dishes (Falcon 3047, Becton Dickinson, NJ, USA) for 24 h. The coverslides were then washed carefully with PBS, moved to a new plate and treated for 24 h with tetracycline 50 mg/L and 500 mg/L, vancomycin 50 mg/L and 500 mg/L, or Compound A 50 mg/L and 500 mg/L. The coverslides were washed again with […] and stained with a LIVE/DEAD kit (Invitrogen Molecular Probes, Eugene, Oreg., USA) following the manufacturer's instructions. This stain contains SYTO 9 (green fluorescent) and propidium iodide (PI; red fluorescent), both binding to DNA. When used alone, the SYTO 9 generally stains all bacteria in a population; both those with intact and those with damaged membranes. In contrast, PI penetrates only bacteria with damaged membranes, causing a reduction in the SYTO 9 stain green fluorescence when both dyes are present. We examined treated and untreated biofilms with a Leica TCS SP5 (Leica Microsystems CMS Gmbh, Mannheim, Germany) confocal laser scanning microscope (CLSM). Images were obtained using a 63×1.2 NA HCX PL APO water immersion lens. For detection of SYTO9 (green channel), we used the 488 nm line of the argon laser and a detection bandwidth of 495-515 nm. For PI detection (red channel), we used the 561 nm line and a detection bandwidth of 615-660 nm. The two fluorescent-signals were collected sequentially at 400 Hz. Image analyses and export was performed in Leica LAS AF version 1.8.2.
# [9] = system: six staphylococcal strains (2 S. epidermidis, 2 S. haemolyticus and 2 S. aureus); test: Susceptibility testing under planktonic growth condition, EUCAST breakpoints; format: cell-based; conditions: EUCAST criteria
# Description: The six staphylococcal strains (2 S. epidermidis, 2 S. haemolyticus and 2 S. aureus) used in this study were selected based on their previously known biofilm forming capacity (Table 1).
# as §1
# We determined the MICs of oxacillin, gentamicin, tetracycline, vancomycin and linezolid using E-test (AB Biodisk, Solna, Sweden) and MICs of rifampicin using broth microdilution assay. Breakpoints were interpreted according to EUCAST criteria. We selected 3 different SAMPs (Compounds A, B and C; Lytix Biopharma, Tromsø, Norway—see FIG. 1) based on previously known antimicrobial activities, and determined their exact MICs with broth microdilution assay. All 3 SAMPs are tripeptides with two arginine residues providing their cationic moieties (FIG. 1). The lipophilic bulk is provided by a modified tryptophane derivate. The difference between the compounds is the size of the C-terminal modification; Compound A has the smallest and Compound B has the largest C-terminal modification (FIG. 1). The molecular weights of the SAMPs are in the range of 700-800 Dalton.
# [10] = the four other staphylococcal strains
# [11] = planktonic, SE RP62A ATCC 35984
Compound,suppression of metabolic activity (AB reduction) [1],MIC ([2]; TUH 08-16) [µg/mL],MIC ([3]; PIA 9) [µg/mL],MIC ([4]; PIA90) [µg/mL],MIC ([5]; ATCC 35984) [µg/mL],MIC [6] [µg/mL],MIC [7] [µg/mL],LIVE/DEAD staining of biofilm cells (CLSM) ([8]; 50 mg/L),LIVE/DEAD staining of biofilm cells (CLSM) ([8]; 500 mg/L),"susceptibility under planktonic growth [9, 10]",susceptibility under planktonic growth ([9]; the two S. aureus strains),"MIC ([2]; planktonic, SE TUH 08-16) [µg/mL]","MIC ([3]; planktonic, SA PIA 9) [µg/mL]","MIC ([4]; planktonic, SA PIA90) [µg/mL]","MIC [5, 11] [µg/mL]","MIC ([6]; planktonic, SH TUH 51-03) [µg/mL]","MIC ([7]; planktonic, SH TUH 51-07) [µg/mL]"
CCCCCCNC(=O)[C@H](CCCNC(=N)N)NC(=O)[C@H](Cc1c(C(C)(C)C)[nH]c2c(C(C)(C)C)cc(C(C)(C)C)cc12)NC(=O)[C@@H](N)CCCNC(=N)N [Compound C],strong or complete suppression,2,4,2,4,4,4,,,,,,,,,,
CC(C)NC(=O)[C@H](CCCNC(=N)N)NC(=O)[C@H](Cc1c(C(C)(C)C)[nH]c2c(C(C)(C)C)cc(C(C)(C)C)cc12)NC(=O)[C@@H](N)CCCNC(=N)N [Compound A],strong or complete suppression,4,8,8,8,8,8,almost all cells are stained red,almost all cells are stained red; also recorded: membrane damage of all cells,,,,,,,,
"Cc1onc(-c2ccccc2)c1C(=O)N[C@@H]1C(=O)N2[C@@H]1SC(C)(C)[C@@H]2C(=O)O [OXA, oxacillin]",,,,,,,,,,resistant,susceptible,16,1,1,8,>256,>256
gentamicin,,,,,,,,,,resistant,susceptible,256,1,0.5,8,64,64
